Experimental data from PubChem BioAssay AID248 (DTP/NCI, 2004).
Values joined by “and” are separate entries in the source; they are usually repeats but may differ in a detail not shown here. Equal entries are not always repeated. Toxic doses and inconclusive results are not listed.

Tested on: L1210 leukemia ip in BDF1 mice, survival T/C
Assay: NCI In Vivo Anticancer Drug Screen. Data for tumor model L1210 Leukemia (intraperitoneal) in B6D2F1 (BDF1) mice
Details: endpoint: mean survival time, higher = longer survival
Method in brief: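 Transplanted-tumor mice were given test agent; controls received vehicle only. Survival readings from the two groups were divided (treated over control).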

[1] = dose: 50.0 mg/kg/injection, schedule: Q01DX009 (ip), vehicle: Klucel (hydroxypropylcellulose) (HPC)
[2] = dose: 100.0 mg/kg/injection, schedule: Q01DX009 (ip), vehicle: Klucel (hydroxypropylcellulose) (HPC)
[3] = dose: 100.0 mg/kg/injection, schedule: Q04DX003 (ip), vehicle: Klucel (hydroxypropylcellulose) (HPC)
[4] = dose: 200.0 mg/kg/injection, schedule: Q04DX003 (ip), vehicle: Klucel (hydroxypropylcellulose) (HPC)
[5] = dose: 400.0 mg/kg/injection, schedule: Q04DX003 (ip), vehicle: Klucel (hydroxypropylcellulose) (HPC)
[6] = dose: 50.0 mg/kg/injection, schedule: Q01DX001 (ip), vehicle: saline
[7] = dose: 100.0 mg/kg/injection, schedule: Q01DX001 (ip), vehicle: saline
[8] = dose: 200.0 mg/kg/injection, schedule: Q01DX001 (ip), vehicle: saline
[9] = dose: 400.0 mg/kg/injection, schedule: Q01DX001 (ip), vehicle: saline
[10] = dose: 200.0 mg/kg/injection, schedule: Q01DX009 (ip), vehicle: Klucel (hydroxypropylcellulose) (HPC)
[11] = dose: 400.0 mg/kg/injection, schedule: Q01DX009 (ip), vehicle: Klucel (hydroxypropylcellulose) (HPC)
[12] = dose: 50.0 mg/kg/injection, schedule: Q01DX009 (ip), vehicle: saline
[13] = dose: 100.0 mg/kg/injection, schedule: Q01DX009 (ip), vehicle: saline
[14] = dose: 100.0 mg/kg/injection, schedule: Q01DX001 (ip), vehicle: other
[15] = dose: 200.0 mg/kg/injection, schedule: Q01DX001 (ip), vehicle: other

With Cc1cccc(C)c1NC(=O)c1c(Cl)c(Cl)c(Cl)c(Cl)c1C(=O)O the T/C (dose: 25.0 mg/kg/injection, schedule: Q01DX009 (ip), vehicle: Klucel (hydroxypropylcellulose) (HPC)) was 95 % of control, the T/C [1] was 87 % of control and the T/C [2] was 94 % of control and 88 % of control. For the same compound, the T/C [3] was 102 % of control, the T/C [4] was 102 % of control and the T/C [5] was 107 % of control.
For Cc1cc(=O)[nH]c(N=Nc2c(O)[nH]c3ccccc23)n1, the T/C (dose: 100.0 mg/kg/injection, schedule: Q01DX001 (ip), vehicle: carboxymethylcellulose (CMC)) was 98 % of control, the T/C (dose: 200.0 mg/kg/injection, schedule: Q01DX001 (ip), vehicle: carboxymethylcellulose (CMC)) was 93 % of control and the T/C (dose: 400.0 mg/kg/injection, schedule: Q01DX001 (ip), vehicle: carboxymethylcellulose (CMC)) was 88 % of control.
With COc1cccc(OC)c1C1(O)c2ccccc2-c2ccccc21 the T/C (dose: 100.0 mg/kg/injection, schedule: Q04DX003 (ip), vehicle: saline with Tween-80) was 98 % of control, the T/C (dose: 200.0 mg/kg/injection, schedule: Q04DX003 (ip), vehicle: saline with Tween-80) was 95 % of control and the T/C (dose: 400.0 mg/kg/injection, schedule: Q04DX003 (ip), vehicle: saline with Tween-80) was 95 % of control.
For Cc1ccc(S(=O)(=O)NC(=O)C(C)Br)cc1 (stereo not drawn), the T/C (dose: 150.0 mg/kg/injection, schedule: Q01DX001 (ip), vehicle: steriod suspending solution) was 95 % of control and the T/C (dose: 300.0 mg/kg/injection, schedule: Q01DX001 (ip), vehicle: steriod suspending solution) was 95 % of control.
CCOC(=O)CS(=O)(=O)CS(=O)(=O)CC(=O)OCC was tested, and the T/C (dose: 100.0 mg/kg/injection, schedule: Q04DX002 (ip), vehicle: Klucel (hydroxypropylcellulose) (HPC)) was 94 % of control, the T/C (dose: 200.0 mg/kg/injection, schedule: Q04DX002 (ip), vehicle: Klucel (hydroxypropylcellulose) (HPC)) was 100 % of control and the T/C (dose: 400.0 mg/kg/injection, schedule: Q04DX002 (ip), vehicle: Klucel (hydroxypropylcellulose) (HPC)) was 100 % of control.
In the case of CC1(C)N=C(N)N=C(N)N1c1cc(Cl)cc(CCNC(=O)Nc2ccc(S(=O)(=O)F)cc2)c1, the T/C (dose: 25.0 mg/kg/injection, schedule: Q01DX001 (ip), vehicle: saline with Tween-80) is reported as 98 % of control, the T/C (dose: 50.0 mg/kg/injection, schedule: Q01DX001 (ip), vehicle: saline with Tween-80) is reported as 98 % of control and the T/C (dose: 100.0 mg/kg/injection, schedule: Q01DX001 (ip), vehicle: saline with Tween-80) is reported as 106 % of control.
C(=C\c1nc2ccccc2[nH]1)/c1nc2ccccc2[nH]1 was tested, and the T/C [6] was 108 % of control, the T/C [7] was 96 % of control and the T/C [8] was 96 % of control. For the same compound, the T/C [9] was 106 % of control.
With O=c1cc(NCc2cccc3ccccc23)[nH]c(=O)[nH]1 the T/C (dose: 37.5 mg/kg/injection, schedule: Q01DX001 (ip), vehicle: Klucel (hydroxypropylcellulose) (HPC)) was 97 % of control, the T/C (dose: 75.0 mg/kg/injection, schedule: Q01DX001 (ip), vehicle: Klucel (hydroxypropylcellulose) (HPC)) was 95 % of control and the T/C (dose: 150.0 mg/kg/injection, schedule: Q01DX001 (ip), vehicle: Klucel (hydroxypropylcellulose) (HPC)) was 93 % of control.
For NC(CCl)=NCC1CCCC1, the T/C (dose: 12.5 mg/kg/injection, schedule: Q04DX002 (ip), vehicle: Klucel (hydroxypropylcellulose) (HPC)) was 96 % of control, the T/C (dose: 25.0 mg/kg/injection, schedule: Q04DX002 (ip), vehicle: Klucel (hydroxypropylcellulose) (HPC)) was 96 % of control and the T/C (dose: 50.0 mg/kg/injection, schedule: Q04DX002 (ip), vehicle: Klucel (hydroxypropylcellulose) (HPC)) was 96 % of control.
In the case of N#CCN1Cc2ccccc2CCc2ccccc2C1, the T/C [1] is reported as 103 % of control, the T/C [2] is reported as 108 % of control and the T/C [3] is reported as 100 % of control. The T/C [10] was 107 % of control and the T/C [4] was 96 % of control.
Nc1cc(N)cc(Cc2ccccc2)c1 was tested, and the T/C [1] was 100 % of control, the T/C [2] was 95 % of control and the T/C [3] was 100 % of control. The T/C [10] was 103 % of control, the T/C [4] was 102 % of control and the T/C [11] was 92 % of control. For the same compound, the T/C [5] was 98 % of control.
In the case of CN(C)c1ccc(/C=C/c2ccc(N(C)C)cc2)cc1, the T/C [2] is reported as 98 % of control, the T/C [3] is reported as 98 % of control and the T/C [10] is reported as 102 % of control. The T/C [4] was 94 % of control, the T/C [11] was 93 % of control and the T/C [5] was 100 % of control.
With CCOC(=O)c1ccc(NC(=S)NC(=O)c2cccc3ccccc23)cc1 the T/C (dose: 100.0 mg/kg/injection, schedule: Q04DX002 (ip), vehicle: other) was 91 % of control and 92 % of control, the T/C (dose: 200.0 mg/kg/injection, schedule: Q04DX002 (ip), vehicle: other) was 97 % of control and 91 % of control and the T/C (dose: 400.0 mg/kg/injection, schedule: Q04DX002 (ip), vehicle: other) was 102 % of control and 91 % of control.
With COc1cccc(CC(=O)c2c[nH]c3ccccc23)c1 the T/C [6] was 104 % of control, the T/C [7] was 101 % of control and the T/C [8] was 98 % of control. The T/C [9] was 101 % of control.
For Clc1ccc(/C=C/c2nc(Cl)c(-c3ccc(Cl)cc3)c(Cl)n2)cc1, the T/C (dose: 75.0 mg/kg/injection, schedule: Q01DX001 (ip), vehicle: saline) was 105 % of control, the T/C (dose: 150.0 mg/kg/injection, schedule: Q01DX001 (ip), vehicle: saline) was 92 % of control and the T/C (dose: 150.0 mg/kg/injection, schedule: Q04DX003 (ip), vehicle: Klucel (hydroxypropylcellulose) (HPC)) was 113 % of control. For the same compound, the T/C (dose: 300.0 mg/kg/injection, schedule: Q01DX001 (ip), vehicle: saline) was 97 % of control and the T/C (dose: 300.0 mg/kg/injection, schedule: Q04DX003 (ip), vehicle: Klucel (hydroxypropylcellulose) (HPC)) was 92 % of control.
CC(=O)N1CC=C2c3c1ccc(C)c3C(=O)C2C(N)=O (stereo not drawn) was tested, and the T/C [7] was 97 % of control, the T/C [8] was 94 % of control and the T/C [9] was 94 % of control.
CCC(C)CNCCO (stereo not drawn) was tested, and the T/C [12] was 92 % of control, the T/C [13] was 100 % of control and the T/C (dose: 200.0 mg/kg/injection, schedule: Q01DX009 (ip), vehicle: saline) was 103 % of control.
O=c1[nH]cnc2nc(-c3cccc([N+](=O)[O-])c3)[nH]c12 was tested, and the T/C (dose: 100.0 mg/kg/injection, schedule: Q04DX003 (ip), vehicle: gum acacia) was 102 % of control, the T/C (dose: 200.0 mg/kg/injection, schedule: Q04DX003 (ip), vehicle: gum acacia) was 92 % of control and the T/C (dose: 400.0 mg/kg/injection, schedule: Q04DX003 (ip), vehicle: gum acacia) was 96 % of control.
For Cc1ccc(S(=O)(=O)OCC2C(c3ccccc3)CCC(c3ccccc3)C2COS(=O)(=O)c2ccc(C)cc2)cc1 (stereo not drawn), the T/C [2] was 90 % of control, the T/C [3] was 103 % of control and the T/C [10] was 94 % of control. The T/C [4] was 105 % of control and the T/C [5] was 100 % of control.
In the case of CCN(CC)CCOC(=O)Nc1cccc(Cl)c1, the T/C (dose: 25.0 mg/kg/injection, schedule: Q01DX009 (ip), vehicle: saline) is reported as 100 % of control, the T/C [12] is reported as 98 % of control and the T/C [13] is reported as 100 % of control and 109 % of control.
For CC#CC(C)(O)C(=O)OC (stereo not drawn), the T/C [14] was 105 % of control, the T/C [15] was 98 % of control and the T/C (dose: 400.0 mg/kg/injection, schedule: Q01DX001 (ip), vehicle: other) was 94 % of control.
CCCCNC(=O)c1ccccc1-c1ccccc1C(=O)NCCCC was tested, and the T/C [14] was 105 % of control and the T/C [15] was 97 % of control.
O=NN(CCCl)C(=O)N[C@@H]1CCC[C@@H](O)C1 was tested, and the T/C (dose: 13.0 mg/kg/injection, schedule: Q01DX001 (ip), vehicle: saline with Tween-80) was 250 % of control, the T/C (dose: 20.0 mg/kg/injection, schedule: Q01DX001 (ip), vehicle: saline with Tween-80) was 357 % of control and the T/C (dose: 30.0 mg/kg/injection, schedule: Q01DX001 (ip), vehicle: saline with Tween-80) was 420 % of control. For the same compound, the T/C (dose: 44.0 mg/kg/injection, schedule: Q01DX001 (ip), vehicle: saline with Tween-80) was 417 % of control.
O=C1NC(c2ccccc2)(c2ccccc2)C(=O)N1CNc1ccc(Br)cc1 was tested, and the T/C [3] was 89 % of control, the T/C [4] was 89 % of control and the T/C [5] was 92 % of control.
In the case of Cc1c2c(cc3c4ccccc4n(CC4CO4)c13)C(c1ccc(Cl)cc1)=NCC2 (stereo not drawn), the T/C (dose: 37.5 mg/kg/injection, schedule: Q04DX003 (ip), vehicle: water) is reported as 104 % of control, the T/C (dose: 75.0 mg/kg/injection, schedule: Q04DX003 (ip), vehicle: water) is reported as 100 % of control and the T/C (dose: 150.0 mg/kg/injection, schedule: Q04DX003 (ip), vehicle: water) is reported as 92 % of control. For the same compound, the T/C (dose: 300.0 mg/kg/injection, schedule: Q04DX003 (ip), vehicle: water) was 96 % of control.
